Source: PubChem BioAssay AID212 (DTP/NCI, 2004)
“And” between values parts separate entries of the source, which are not always exact repeats. Identical values can stand only once. Results filed as inconclusive are left out.

Tested on: BDF1 mice, colon carcinoma 38 sc, T/C %
Experiment: NCI In Vivo Anticancer Drug Screen. Data for tumor model Colon Carcinoma 38 (subcutaneous) in B6D2F1 (BDF1) mice
Summary of the method: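 Ratio of survival or tumor size, compound-treated animals relative to vehicle controls, in tumor-bearing mice.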

[1] = endpoint: median tumor weight (est.), dose: 50.0 mg/kg/injection, schedule: Q07DX002 (ip), vehicle: Klucel (hydroxypropylcellulose) (HPC), higher = larger tumour
[2] = endpoint: median tumor weight (est.), dose: 100.0 mg/kg/injection, schedule: Q07DX002 (ip), vehicle: Klucel (hydroxypropylcellulose) (HPC), higher = larger tumour
[3] = endpoint: median tumor weight (est.), dose: 200.0 mg/kg/injection, schedule: Q07DX002 (ip), vehicle: Klucel (hydroxypropylcellulose) (HPC), higher = larger tumour
[4] = endpoint: median tumor weight (est.), dose: 400.0 mg/kg/injection, schedule: Q07DX002 (ip), vehicle: Klucel (hydroxypropylcellulose) (HPC), higher = larger tumour
[5] = endpoint: median tumor weight (est.), dose: 800.0 mg/kg/injection, schedule: Q07DX002 (ip), vehicle: Klucel (hydroxypropylcellulose) (HPC), higher = larger tumour
[6] = endpoint: median tumor weight (est.), dose: 25.0 mg/kg/injection, schedule: Q07DX002 (ip), vehicle: saline with Tween-80, higher = larger tumour
[7] = endpoint: median tumor weight (est.), dose: 100.0 mg/kg/injection, schedule: Q07DX002 (ip), vehicle: saline with Tween-80, higher = larger tumour

Question: For `CC1OC(OC2CC(O)(C(=O)CO)Cc3c(O)c4c(c(O)c32)C(=O)c2ccccc2C4=O)CC(N)C1O` (centres undefined), which T/C (endpoint: median survival time, dose: 1.2 mg/kg/injection, schedule: Q07DX003 (iv), vehicle: saline, higher = longer survival) is on record?
Answer: 108 % of control

Question: And the T/C (endpoint: median survival time, dose: 1.9 mg/kg/injection, schedule: Q07DX003 (iv), vehicle: saline, higher = longer survival)?
Answer: 111 % of control

Question: What about the T/C (endpoint: median tumor weight (est.), dose: 0.12 mg/kg/injection, schedule: Q07DX002 (ip), vehicle: water, higher = larger tumour) of the same molecule?
Answer: 120 % of control

Question: What about the T/C (endpoint: median tumor weight (est.), dose: 0.25 mg/kg/injection, schedule: Q07DX002 (ip), vehicle: saline, higher = larger tumour) of the same molecule?
Answer: 113 % of control

Question: And the T/C (endpoint: median tumor weight (est.), dose: 0.25 mg/kg/injection, schedule: Q07DX002 (ip), vehicle: water, higher = larger tumour)?
Answer: 90 % of control

Question: And the T/C (endpoint: median tumor weight (est.), dose: 0.5 mg/kg/injection, schedule: Q07DX002 (ip), vehicle: saline, higher = larger tumour)?
Answer: 104 % of control

Question: And the T/C (endpoint: median tumor weight (est.), dose: 0.5 mg/kg/injection, schedule: Q07DX002 (ip), vehicle: water, higher = larger tumour)?
Answer: 78 % of control

Question: What about the T/C (endpoint: median tumor weight (est.), dose: 1.0 mg/kg/injection, schedule: Q07DX002 (ip), vehicle: saline, higher = larger tumour) of the same molecule?
Answer: 69 % of control

Question: What about the T/C (endpoint: median tumor weight (est.), dose: 1.0 mg/kg/injection, schedule: Q07DX002 (ip), vehicle: water, higher = larger tumour) of the same molecule?
Answer: 23 % of control

Question: What about the T/C (endpoint: median tumor weight (est.), dose: 2.0 mg/kg/injection, schedule: Q07DX002 (ip), vehicle: saline, higher = larger tumour) of the same molecule?
Answer: 72 % of control

Question: What does the source list for `CC1=CC(C)(C)Nc2ccc(CSc3ccccc3)cc21`?
Answer: T/C (endpoint: median tumor weight (est.), dose: 6.25 mg/kg/injection, schedule: Q07DX002 (ip), vehicle: DMSO, higher = larger tumour): 88 % of control; T/C (endpoint: median tumor weight (est.), dose: 12.5 mg/kg/injection, schedule: Q07DX002 (ip), vehicle: DMSO, higher = larger tumour): 86 % of control; T/C (endpoint: median tumor weight (est.), dose: 12.5 mg/kg/injection, schedule: Q07DX002 (ip), vehicle: saline + Tween-80 + alcohol, higher = larger tumour): 78 % of control; T/C (endpoint: median tumor weight (est.), dose: 25.0 mg/kg/injection, schedule: Q07DX002 (ip), vehicle: DMSO, higher = larger tumour): 76 % of control; T/C (endpoint: median tumor weight (est.), dose: 25.0 mg/kg/injection, schedule: Q07DX002 (ip), vehicle: saline + Tween-80 + alcohol, higher = larger tumour): 86 % of control; T/C (endpoint: median tumor weight (est.), dose: 50.0 mg/kg/injection, schedule: Q07DX002 (ip), vehicle: DMSO, higher = larger tumour): 67 % of control; T/C (endpoint: median tumor weight (est.), dose: 50.0 mg/kg/injection, schedule: Q07DX002 (ip), vehicle: saline + Tween-80 + alcohol, higher = larger tumour): 107 % of control; T/C (endpoint: median tumor weight (est.), dose: 100.0 mg/kg/injection, schedule: Q07DX002 (ip), vehicle: DMSO, higher = larger tumour): 59 % of control; T/C (endpoint: median tumor weight (est.), dose: 100.0 mg/kg/injection, schedule: Q07DX002 (ip), vehicle: saline + Tween-80 + alcohol, higher = larger tumour): 102 % of control

Question: Which results are given for `Cc1c(-c2ccc(C3CCCCC3)cc2)nc2ccc(F)cc2c1C(=O)O`?
Answer: T/C [1]: 89 % of control; T/C [2]: 80 % of control; T/C [3]: 116 % of control; T/C [4]: 86 % of control; T/C (endpoint: median tumor weight (est.), dose: 400.0 mg/kg/injection, schedule: Q07DX002 (ip), vehicle: Klucel + Tween-80, higher = larger tumour): 120 % of control; T/C [5]: 107 % of control; T/C (endpoint: median tumor weight (est.), dose: 800.0 mg/kg/injection, schedule: Q07DX002 (ip), vehicle: Klucel + Tween-80, higher = larger tumour): 80 % of control

Question: With `O=C1NC(O)c2ccccc2O1` (centres undefined) as the molecule, how does the T/C [6] read?
Answer: 93 % of control

Question: And the T/C (endpoint: median tumor weight (est.), dose: 25.0 mg/kg/injection, schedule: Q07DX002 (ip), vehicle: suspension in saline, higher = larger tumour)?
Answer: 64 % of control

Question: And the T/C (endpoint: median tumor weight (est.), dose: 50.0 mg/kg/injection, schedule: Q07DX002 (ip), vehicle: saline with Tween-80, higher = larger tumour)?
Answer: 90 % of control

Question: And the T/C (endpoint: median tumor weight (est.), dose: 50.0 mg/kg/injection, schedule: Q07DX002 (ip), vehicle: suspension in saline, higher = larger tumour)?
Answer: 113 % of control and 93 % of control

Question: What about the T/C [7] of the same molecule?
Answer: 75 % of control

Question: What about the T/C (endpoint: median tumor weight (est.), dose: 100.0 mg/kg/injection, schedule: Q07DX002 (ip), vehicle: suspension in saline, higher = larger tumour) of the same molecule?
Answer: 60 % of control and 70 % of control

Question: What about the T/C (endpoint: median tumor weight (est.), dose: 200.0 mg/kg/injection, schedule: Q07DX002 (ip), vehicle: saline with Tween-80, higher = larger tumour) of the same molecule?
Answer: 69 % of control

Question: What about the T/C (endpoint: median tumor weight (est.), dose: 400.0 mg/kg/injection, schedule: Q07DX002 (ip), vehicle: saline with Tween-80, higher = larger tumour) of the same molecule?
Answer: 82 % of control

Question: What does the source list for `Nc1nc([Se])c2ncn(C3OC(CO)C(O)C3O)c2n1` (centres undefined)?
Answer: T/C (endpoint: median tumor weight (est.), dose: 4.0 mg/kg/injection, schedule: Q07DX002 (ip), vehicle: saline, higher = larger tumour): 23 % of control; T/C (endpoint: median tumor weight (est.), dose: 4.0 mg/kg/injection, schedule: Q07DX002 (ip), vehicle: suspension in saline, higher = larger tumour): 124 % of control; T/C (endpoint: median tumor weight (est.), dose: 4.0 mg/kg/injection, schedule: Q07DX003 (ip), vehicle: saline, higher = larger tumour): 170 % of control; T/C (endpoint: median tumor weight (est.), dose: 8.0 mg/kg/injection, schedule: Q07DX002 (ip), vehicle: saline, higher = larger tumour): 14 % of control; T/C (endpoint: median tumor weight (est.), dose: 8.0 mg/kg/injection, schedule: Q07DX002 (ip), vehicle: suspension in saline, higher = larger tumour): 112 % of control and 94 % of control; T/C (endpoint: median tumor weight (est.), dose: 8.0 mg/kg/injection, schedule: Q07DX003 (ip), vehicle: saline, higher = larger tumour): 93 % of control; T/C (endpoint: median tumor weight (est.), dose: 16.0 mg/kg/injection, schedule: Q07DX002 (ip), vehicle: saline, higher = larger tumour): 20 % of control; T/C (endpoint: median tumor weight (est.), dose: 16.0 mg/kg/injection, schedule: Q07DX002 (ip), vehicle: suspension in saline, higher = larger tumour): 83 % of control and 86 % of control; T/C (endpoint: median tumor weight (est.), dose: 16.0 mg/kg/injection, schedule: Q07DX003 (ip), vehicle: saline, higher = larger tumour): 113 % of control; T/C (endpoint: median tumor weight (est.), dose: 32.0 mg/kg/injection, schedule: Q07DX002 (ip), vehicle: saline, higher = larger tumour): 18 % of control; T/C (endpoint: median tumor weight (est.), dose: 32.0 mg/kg/injection, schedule: Q07DX003 (ip), vehicle: saline, higher = larger tumour): 92 % of control; T/C (endpoint: median tumor weight (est.), dose: 64.0 mg/kg/injection, schedule: Q07DX002 (ip), vehicle: saline, higher = larger tumour): 20 % of control; T/C (endpoint: median tumor weight (est.), dose: 64.0 mg/kg/injection, schedule: Q07DX002 (ip), vehicle: suspension in saline, higher = larger tumour): 71 % of control and 92 % of control; T/C (endpoint: median tumor weight (est.), dose: 64.0 mg/kg/injection, schedule: Q07DX003 (ip), vehicle: saline, higher = larger tumour): 41 % of control

Question: What does the source list for `O=[N+]([O-])c1ccc(Sc2ccncn2)c([N+](=O)[O-])c1`?
Answer: T/C (endpoint: median tumor weight (est.), dose: 12.5 mg/kg/injection, schedule: Q07DX002 (ip), vehicle: saline with Tween-80, higher = larger tumour): 51 % of control; T/C [6]: 64 % of control and 74 % of control; T/C [7]: 43 % of control and 44 % of control

Question: How did the T/C [1] turn out when `CN(C)C(=O)SC1=C(c2c(Cl)cccc2Cl)C(=O)c2ccccc21` was run?
Answer: 76 % of control

Question: And the T/C [2]?
Answer: 94 % of control

Question: And the T/C [3]?
Answer: 86 % of control

Question: What about the T/C [4] of the same molecule?
Answer: 82 % of control

Question: What about the T/C [5] of the same molecule?
Answer: 91 % of control

Question: `C=CC(=O)NCNC(=O)C=C` was tested. Which T/C (endpoint: median tumor weight (est.), dose: 12.5 mg/kg/injection, schedule: Q07DX002 (ip), vehicle: saline, higher = larger tumour) did it give?
Answer: 164 % of control

Question: And the T/C (endpoint: median tumor weight (est.), dose: 100.0 mg/kg/injection, schedule: Q07DX002 (ip), vehicle: saline, higher = larger tumour)?
Answer: 100 % of control

Question: What about the T/C (endpoint: median tumor weight (est.), dose: 200.0 mg/kg/injection, schedule: Q07DX002 (ip), vehicle: saline, higher = larger tumour) of the same molecule?
Answer: 89 % of control and 97 % of control

Question: And the T/C (endpoint: median tumor weight (est.), dose: 400.0 mg/kg/injection, schedule: Q07DX002 (ip), vehicle: saline, higher = larger tumour)?
Answer: 35 % of control

Question: For `CC(=O)OC(C)C1C2=C(C(=O)CC1(C)O)C(=O)c1c(ccc(-c3ccc4c(c3O)C(=O)C3=C(C4=O)C(C(C)OC(C)=O)C(C)(O)CC3=O)c1O)C2=O` (centres undefined), which T/C (endpoint: median tumor weight (est.), dose: 1.85 mg/kg/injection, schedule: Q07DX002 (ip), vehicle: saline with Tween-80, higher = larger tumour) is on record?
Answer: 155 % of control

Question: And the T/C (endpoint: median tumor weight (est.), dose: 3.75 mg/kg/injection, schedule: Q07DX002 (ip), vehicle: saline with Tween-80, higher = larger tumour)?
Answer: 109 % of control

Question: And the T/C (endpoint: median tumor weight (est.), dose: 7.5 mg/kg/injection, schedule: Q07DX002 (ip), vehicle: saline with Tween-80, higher = larger tumour)?
Answer: 107 % of control

Question: And the T/C (endpoint: median tumor weight (est.), dose: 30.0 mg/kg/injection, schedule: Q07DX002 (ip), vehicle: saline with Tween-80, higher = larger tumour)?
Answer: 122 % of control

Question: How did the T/C (endpoint: median tumor weight (est.), dose: 0.75 mg/kg/injection, schedule: Q07DX002 (ip), vehicle: saline, higher = larger tumour) turn out when `CC[C@@]1(O)C(=O)OCc2c1cc1n(c2=O)Cc2cc3cc(O)ccc3nc2-1` was run?
Answer: 92 % of control

Question: What about the T/C (endpoint: median tumor weight (est.), dose: 1.5 mg/kg/injection, schedule: Q07DX002 (ip), vehicle: saline, higher = larger tumour) of the same molecule?
Answer: 92 % of control

Question: What about the T/C (endpoint: median tumor weight (est.), dose: 3.0 mg/kg/injection, schedule: Q07DX002 (ip), vehicle: saline, higher = larger tumour) of the same molecule?
Answer: 91 % of control

Question: And the T/C (endpoint: median tumor weight (est.), dose: 6.0 mg/kg/injection, schedule: Q07DX002 (ip), vehicle: saline, higher = larger tumour)?
Answer: 67 % of control

Question: And the T/C (endpoint: median tumor weight (est.), dose: 12.0 mg/kg/injection, schedule: Q07DX002 (ip), vehicle: saline, higher = larger tumour)?
Answer: 81 % of control
